From ChEMBL document CHEMBL1201862, “PubChem BioAssay data set” (2004)
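Step 1: Grow cells in 96-well plates. Step 2: Expose to compound for 48 hours at 5 concentrations. Step 3: Interpolate endpoints linearly; if unreached, use highest concentration. GI50 marks 50% less growth.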 Active and inactive are the calls of the source. Cut-off read from the data, not from the text of the source: active = GI50 up to about 1.1 µM and inactive = higher.

Experiments:
Experiment in all cases: inhibition of tumour cell growth, NCI panel, 48 h
NCI-H522 = test system: NCI-H522
SF-268 = test system: SF-268
U-251 = test system: U-251
SK-MEL-5 = test system: SK-MEL-5
HCC 2998 = test system: HCC 2998
SK-OV-3 = test system: SK-OV-3
IGROV-1 = test system: IGROV-1
HOP-62 = test system: HOP-62
SW-620 = test system: SW-620
HCT-116 = test system: HCT-116
EKVX = test system: EKVX
HT-29 = test system: HT-29
COLO 205 = test system: COLO 205
SNB-75 = test system: SNB-75
DLD-1 = test system: DLD-1
DMS-273 = test system: DMS-273
SNB-19 = test system: SNB-19
ACHN = test system: ACHN
MOLT-4 = test system: MOLT-4
NCI-H23 = test system: NCI-H23
SF-295 = test system: SF-295
HCT-15 = test system: HCT-15
CCRF-CEM = test system: CCRF-CEM
Malme-3M = test system: Malme-3M
K562 = test system: K562
KM-20L2 = test system: KM-20L2
A498 = test system: A498
SF-539 = test system: SF-539
UACC-257 = test system: UACC-257
OVCAR-8 = test system: OVCAR-8
SNB-78 = test system: SNB-78
UACC-62 = test system: UACC-62
UO-31 = test system: UO-31
SN12C = test system: SN12C
A549 = test system: A549
RPMI-8226 = test system: RPMI-8226
XF498 = test system: XF498
M19-MEL = test system: M19-MEL
M14 = test system: M14
SK-MEL-28 = test system: SK-MEL-28
OVCAR-4 = test system: OVCAR-4
RXF 393 = test system: RXF 393
LXFL 529 = test system: LXFL 529
HL-60 = test system: HL-60
HOP-92 = test system: HOP-92
HOP-18 = test system: HOP-18
NCI-H226 = test system: NCI-H226
786-0 = test system: 786-0
SR = test system: SR
TK-10 = test system: TK-10
OVCAR-5 = test system: OVCAR-5
OVCAR-3 = test system: OVCAR-3
DMS-114 = test system: DMS-114
KM12 = test system: KM12
SK-MEL-2 = test system: SK-MEL-2
NCI-H460 = test system: NCI-H460
LOX IMVI = test system: LOX IMVI

In the case of COc1ccc(N2C(=O)C3c4[nH]c5ccccc5c4C4CCC(C(C)(C)C)CC4C3C2=O)cc1OC (configuration not stated), the GI50 (NCI-H522) was 15.4 µM (inactive), the GI50 (SF-268) was 18.7 µM (inactive) and the GI50 (U-251) was 27.6 µM (inactive). For the same compound, the GI50 (SK-MEL-5) was 46.3 µM (inactive), the GI50 (HCC 2998) was 48.8 µM (inactive) and the GI50 (SK-OV-3) was 20.4 µM (inactive). For the same compound, the GI50 (IGROV-1) was 33 µM (inactive), the GI50 (HOP-62) was 18 µM (inactive) and the GI50 (SW-620) was 26.7 µM (inactive). The GI50 (HCT-116) was 16.1 µM (inactive), the GI50 (EKVX) was 35.8 µM (inactive) and the GI50 (HT-29) was 33.9 µM (inactive). For the same compound, the GI50 (COLO 205) was 31.2 µM (inactive), the GI50 (SNB-75) was 16.3 µM (inactive) and the GI50 (DLD-1) was 15.1 µM (inactive). The GI50 (DMS-273) was 17.1 µM (inactive), the GI50 (SNB-19) was 26.2 µM (inactive) and the GI50 (ACHN) was 22.1 µM (inactive). The GI50 (MOLT-4) was 15.6 µM (inactive), the GI50 (NCI-H23) was 34.6 µM (inactive) and the GI50 (SF-295) was 20.4 µM (inactive). The GI50 (HCT-15) was 35 µM, the GI50 (CCRF-CEM) was 27.7 µM (inactive) and the GI50 (Malme-3M) was 38.4 µM (inactive). For the same compound, the GI50 (K562) was 28.2 µM (inactive), the GI50 (KM-20L2) was 36.8 µM (inactive) and the GI50 (A498) was 19.9 µM (inactive). For the same compound, the GI50 (SF-539) was 18.6 µM (inactive), the GI50 (UACC-257) was 67 µM (inactive) and the GI50 (OVCAR-8) was 18.2 µM (inactive). The GI50 (SNB-78) was 19.3 µM (inactive), the GI50 (UACC-62) was 63.4 µM (inactive) and the GI50 (UO-31) was 34.4 µM (inactive). For the same compound, the GI50 (SN12C) was 23 µM (inactive), the GI50 (A549) was 16.1 µM (inactive) and the GI50 (RPMI-8226) was 22.2 µM (inactive). The GI50 (XF498) was 18.2 µM (inactive), the GI50 (M19-MEL) was 51.1 µM (inactive) and the GI50 (M14) was 45.3 µM (inactive). For the same compound, the GI50 (SK-MEL-28) was 71.1 µM (inactive), the GI50 (OVCAR-4) was 21.9 µM (inactive) and the GI50 (RXF 393) was 14.8 µM (inactive). For the same compound, the GI50 (LXFL 529) was 18.5 µM (inactive), the GI50 (HL-60) was 59.4 µM (inactive) and the GI50 (HOP-92) was 20.5 µM (inactive). For the same compound, the GI50 (HOP-18) was 20.9 µM (inactive), the GI50 (NCI-H226) was 20 µM (inactive) and the GI50 (786-0) was 17.8 µM (inactive). For the same compound, the GI50 (SR) was 18.1 µM (inactive).
In the case of CC1(C)C(=O)OC(n2cc(F)c(=O)[nH]c2=O)C1=O (configuration not stated), the GI50 (TK-10) was > 100 µM (inactive), the GI50 (NCI-H522) was > 100 µM (inactive) and the GI50 (SF-268) was > 100 µM (inactive). For the same compound, the GI50 (U-251) was > 100 µM (inactive), the GI50 (HCC 2998) was 46.6 µM (inactive) and the GI50 (OVCAR-5) was > 100 µM (inactive). The GI50 (SK-OV-3) was > 100 µM (inactive), the GI50 (OVCAR-3) was > 100 µM (inactive) and the GI50 (HOP-62) was 65.9 µM (inactive). The GI50 (SW-620) was > 100 µM (inactive), the GI50 (HCT-116) was 89.5 µM (inactive) and the GI50 (EKVX) was 39.1 µM (inactive). For the same compound, the GI50 (HT-29) was > 100 µM (inactive), the GI50 (COLO 205) was > 100 µM (inactive) and the GI50 (SNB-75) was > 100 µM (inactive). The GI50 (DLD-1) was > 100 µM (inactive), the GI50 (SNB-19) was > 100 µM (inactive) and the GI50 (ACHN) was > 100 µM (inactive). The GI50 (MOLT-4) was > 100 µM (inactive), the GI50 (NCI-H23) was > 100 µM (inactive) and the GI50 (SF-295) was > 100 µM (inactive). For the same compound, the GI50 (HCT-15) was > 100 µM, the GI50 (DMS-114) was > 100 µM (inactive) and the GI50 (CCRF-CEM) was > 100 µM (inactive). The GI50 (Malme-3M) was > 100 µM (inactive), the GI50 (K562) was > 100 µM (inactive) and the GI50 (KM12) was > 100 µM (inactive). The GI50 (KM-20L2) was > 100 µM (inactive), the GI50 (A498) was > 100 µM (inactive) and the GI50 (SF-539) was 43.9 µM (inactive). For the same compound, the GI50 (UACC-257) was > 100 µM (inactive), the GI50 (OVCAR-8) was > 100 µM (inactive) and the GI50 (SK-MEL-2) was > 100 µM (inactive). For the same compound, the GI50 (SNB-78) was > 100 µM (inactive), the GI50 (UACC-62) was > 100 µM (inactive) and the GI50 (UO-31) was > 100 µM (inactive). For the same compound, the GI50 (NCI-H460) was 55.1 µM (inactive), the GI50 (SN12C) was > 100 µM (inactive) and the GI50 (A549) was 66.5 µM (inactive). The GI50 (RPMI-8226) was > 100 µM (inactive), the GI50 (XF498) was > 100 µM (inactive) and the GI50 (M19-MEL) was > 100 µM (inactive). For the same compound, the GI50 (M14) was > 100 µM (inactive), the GI50 (SK-MEL-28) was > 100 µM (inactive) and the GI50 (OVCAR-4) was > 100 µM (inactive). The GI50 (RXF 393) was > 100 µM (inactive), the GI50 (LXFL 529) was > 100 µM (inactive) and the GI50 (LOX IMVI) was > 100 µM (inactive). For the same compound, the GI50 (HL-60) was > 100 µM (inactive), the GI50 (HOP-92) was 26.5 µM (inactive) and the GI50 (HOP-18) was > 100 µM (inactive). For the same compound, the GI50 (NCI-H226) was > 100 µM (inactive) and the GI50 (786-0) was > 100 µM (inactive).
